# Data from PMC4550478, “Metronidazole-triazole conjugates: Activity against Clostridium difficile and parasites” (European Journal of Medicinal Chemistry, 2015).
# Legend:
# [1] = tested on: G. lamblia WB trophozoites; test: ATP-bioluminescence growth and survival assay, G. lamblia WB; type: cell-based, Giardia lamblia; conditions: MtzS, 48 h, anaerobic, n = 3
# Description: (§1) Compounds were tested for antiparasitic activity against E. histolytica (HM1:1MSS strain) and G. lamblia (WB, BRIS/87/HEPU/713 (713), BRIS/83/HEPU/106 (106) and the metronidazole resistant syngeneic line 713-M3 [[15,16]]) using an ATP-bioluminescence based screen for cell growth and survival [[17,18]]. Assay plates were inoculated with trophozoites (5 × 10^3 parasites/well) and incubated in the GasPak™ EZ Anaerobe Gas Generating Pouch Systems (VWR, West Chester, PA) to maintain anaerobic conditions throughout the incubation period. The assays were performed in triplicate using the CellTiter-Glo Luminescent Cell Viability Assay. Metronidazole was used as a positive control.
# (§2) Trophozoites of E. histolytica strain HM1:IMSS and G. lamblia strains WB, BRIS/87/HEPU/713 (713),^10 BRIS/83/HEPU/106 (106)^11 and the metronidazole resistant syngenic line 713-M3^10,11 were axenically maintained in TYI-S-33 medium supplemented with penicillin (100 U/ml), streptomycin (100 µg/ml).^12 E. histolytica and G. lamblia trophozoites were counted using a particle counter (Beckman Coulter, Fullerton, CA). All experiments were performed using trophozoites harvested during the logarithmic phase of growth.
# (§3) A three-fold serial dilution was then performed yielding a concentration range 0.25-625 µM. From this dilution plate, 4 µL were transferred into the 96-well screen plates followed by addition of 96 µL of trophozoites (5,000 parasites) to yield a final 8-point concentration range spanning 0.01- 25 µM. Assay plates were incubated for 48 h at 37 °C in the GasPak^TM EZ Anaerobe Gas Generating Pouch Systems (VWR, West Chester, PA) to maintain anaerobic condition throughout the incubation period. The assays were performed in triplicate using the CellTiter-Glo Luminescent Cell Viability Assay.^13
# [2] = tested on: C. difficile NAP1/027 M7404; test: MIC broth microdilution, C. difficile NAP1/027 M7404; type: cell-based, Clostridium difficile; conditions: NAP1/027 (footnote d: M7404), MtzS, 24 h, median of at least n = 4; for MIC: Clostridioides difficile, NAP1/027M7404
# Description: (§4) All compounds were tested for activity against a set of anaerobic C. difficile bacteria (630 ATCC BAA-1382, NAP1/027 M7404, NAP1/027 ATCC BAA-1803, VPI10463 ATCC 43255, CD26A54_S and CD26A54_R) and representative ESKAPE pathogens S. aureus (MRSA ATCC 43300), E. coli (ATCC 25922), K. pneumoniae (ATCC 700603), A. baumannii (ATCC 19606) and P. aeruginosa (ATCC 27853) using a standard broth microdilution assay. Selected compounds were tested for activity against H. pylori strains (26695, and clinical isolates MtzS 13/25, MtzR 98/285 and MtzR 13/61) using agar plate dilution, and for antimicrobial activity against […] Gram-positive bacterial strains: Enterococcus faecalis (VanA clinical isolate), Enterococcus faecium (MDR VanA ATCC 51559), Streptococcus pneumoniae (MDR ATCC 700677), S. aureus (MRSA ATCC 43300, MRSA clinical isolate, MRSA/DRSA clinical isolate, GISA NARSA NRS 1, GISA NARSA NRS 17, VRSA NARSA VRS1, VRSA NARSA VRS4 and VRSA NARSA VRS10) using broth microdilution. C. difficile strains were grown at 37 °C in a COY anaerobic chamber (5% H2, 10% CO2, 85% N2). H. pylori strains were grown at 37 °C under a microaerobic atmosphere (5% O2, 10% CO2). All facultative anaerobic bacteria were grown at 37 °C with normal atmospheric oxygen levels. All experiments were performed in duplicate with metronidazole, vancomycin, linezolid or colistin as positive controls for relevant strains (see Table 1). Positive growth control of bacteria and DMSO as well as a negative control of only media were included for every plate. Full assay details are provided in the supplementary information.
# (§5) C. difficile ATCC BAA-1382, ATCC BAA-1803, ATCC 43255 and M7404 heat shocked spore stocks (10 µL) were transferred into the anaerobic chamber and 10 µL streaked onto pre-reduced (at least 2.5 hr in anaerobic chamber) BHIS agar plates supplemented with 0.1% w/v sodium taurocholate (BHIS(TA)). Plates were incubated for 24 hours prior to assay to give colonies of size 1-3mm diameter with characteristic uneven borders.
# (§6) The minimum inhibition concentration was determined according to the CLSI Methods with modifications in broth and inoculum for C. difficile according to Babakhani et al.^7,8 Briefly, compounds were prepared to 20X final concentration in 100% water, 60% DMSO and 40% water or 60% DMSO and 40% media. The compounds along with standard antibiotics were serially diluted two-fold across the wells of 96-well non-binding surface plates (Non binding surface, Corning). The plates were placed in the anaerobic chamber overnight to reduce. C. difficile bacteria from BHIS(TA) agar plates were cultured anaerobically in BHIS at 37 °C overnight. A sample of culture was then diluted 40-fold in BHIS broth and incubated at 37 °C for approximately 4.5 hrs. The resultant mid-log phase culture (OD600= 0.5-0.6) was diluted to the final concentration of ~1×10^6 CFU/mL, then 50 µL was added to each well of the compound-containing 96-well plates. This gave final cell concentration of 5×10^5 CFU/mL, final volume 100 µL and 3% maximum DMSO concentration. Compound concentration was typically from 64 to 0.03 µg/mL. An antibiotic standard was included on each 96 well plate as well as a positive growth control (no compound) and sterility control (no bacteria). All the plates were covered and incubated at 37 °C for 24 h. MICs were the lowest concentration showing no visible growth.
# [3] = tested on: C. difficile VPI10463 ATCC 43255; test: MIC broth microdilution, C. difficile VPI 10463; type: cell-based, Clostridium difficile; conditions: VPI 10463, MtzS, 24 h, median of at least n = 4; for MIC: Clostridioides difficile, ATCC 43255 / ATCC BAA-1803
# Description: as §4, §5, §6
# G. lamblia 713-M3 (713M) = test: ATP-bioluminescence growth and survival assay, metronidazole resistant G. lamblia 713-M3; type: cell-based; conditions: Giardia duodenalis, read-out: EC50 G. lamblia 713M
# Description: as §1, §2, §3
# [4] = tested on: G. lamblia BRIS/87/HEPU/713 (713); test: ATP-bioluminescence growth and survival assay, G. lamblia 713; type: cell-based; conditions: Giardia duodenalis, read-out: EC50 G. lamblia 713
# Description: as §1, §2, §3
Structure (SMILES),EC50 ([1]; Giardia duodenalis) [nM],MIC [2] [µg/mL],MIC [3] [µg/mL],EC50 (G. lamblia 713-M3 (713M)) [nM],EC50 [4] [nM],EC50 [1] [nM],MIC C. difficile NAP1/027 (footnote d) [2] [µg/mL],MIC C. difficile VPI 10463 [3] [µg/mL]
"Cc1ncc([N+](=O)[O-])n1CCn1cc(Cn2cccn2)nn1 [Compound 4g, 1-(2-(2-methyl-5-nitro-1H-imidazol-1-yl)ethyl)-4-((1H-pyrazol-1-yl)methyl)-1H-1,2,3-triazole]",4900,1,1,,,,,
"Cc1ncc([N+](=O)[O-])n1CCn1cc(-c2ncccn2)nn1 [Compound 4j, 1-(2-(2-methyl-5-nitro-1H-imidazol-1-yl)ethyl)-4-(2-pyrimidinyl)-1H-1,2,3-triazole]",1700,2,2,,,,,
"COc1ccc(-c2cn(CCn3c([N+](=O)[O-])cnc3C)nn2)cc1 [Compound 4b, 1-(2-(2-methyl-5-nitro-1H-imidazol-1-yl)ethyl)-4-(4-methoxyphenyl)-1H-1,2,3-triazole]",270,0.5,0.25 to 0.5,1000,640,,,
"Cc1ncc([N+](=O)[O-])n1CCn1cc(CN)nn1.O=C(O)C(F)(F)F [Compound 4t, 1-(2-(2-methyl-5-nitro-1H-imidazol-1-yl)ethyl)-4-(aminomethyl)-1H-1,2,3-triazole trifluoroacetate salt]",> 25000,> 64,> 64,,,,,
"COC(=O)c1cn(CCn2c([N+](=O)[O-])cnc2C)nn1 [Compound 4f, 1-(2-(2-methyl-5-nitro-1H-imidazol-1-yl)ethyl)-4-(methoxycarbonyl)-1H-1,2,3-triazole]",3000,1,1,3100,1800,,,
"Cc1ncc([N+](=O)[O-])n1CCn1cc(CN2CCS(=O)(=O)CC2)nn1 [Compound 4o, 1-(2-(2-methyl-5-nitro-1H-imidazol-1-yl)ethyl)-4-((1,1-dioxothiomorpholin-4-yl)methyl)-1H-1,2,3-triazole]",> 25000,> 64,> 64,,,,,
"Cc1ncc([N+](=O)[O-])n1CCn1cc(C(O)c2ccccc2)nn1 (stereo not shown) [Compound 4l, 1-(2-(2-methyl-5-nitro-1H-imidazol-1-yl)ethyl)-4-(1-phenyl-1-hydroxylmethyl)-1H-1,2,3-triazole]",4400,0.5 to 1,0.5,3000,2400,,,
"Cc1ncc([N+](=O)[O-])n1CCn1cc(C(=O)O)nn1 [Compound 4s, 1-(2-(2-methyl-5-nitro-1H-imidazol-1-yl)ethyl)-4-(carboxy)-1H-1,2,3-triazole]",> 25000,64,64,,,,,
"Cc1ncc([N+](=O)[O-])n1CCn1cc(CN(C)Cc2ccccc2)nn1 [Compound 4m, 1-(2-(2-methyl-5-nitro-1H-imidazol-1-yl)ethyl)-4-(N-benzyl, N-methylaminomethyl)-1H-1,2,3-triazole]",1600,2,1 to 2,2200,710,,,
"Cc1ccc(-c2cn(CCn3c([N+](=O)[O-])cnc3C)nn2)cc1 [Compound 4e, 1-(2-(2-methyl-5-nitro-1H-imidazol-1-yl)ethyl)-4-(p-tolyl)-1H-1,2,3-triazole]",180,0.5,0.25,1000,290,,,
"Cc1ncc([N+](=O)[O-])n1CCN=[N+]=[N-] [Compound 3, 1-(2-azidoethyl)-2-methyl-5-nitro-1H-imidazole]",,,,,,1500,0.5,0.5
"Cc1ncc([N+](=O)[O-])n1CCn1cc(Cc2ccccc2)nn1 [Compound 4k, 1-(2-(2-methyl-5-nitro-1H-imidazol-1-yl)ethyl)-4-benzyl-1H-1,2,3-triazole]",700,0.5,0.25 to 0.5,1100,320,,,
"Cc1ncc([N+](=O)[O-])n1CCn1cc(-c2ccccn2)nn1 [Compound 4h, 1-(2-(2-methyl-5-nitro-1H-imidazol-1-yl)ethyl)-4-(2-pyridinyl)-1H-1,2,3-triazole.xTFA]",740,0.5,0.5,950,280,,,
"Cc1ncc([N+](=O)[O-])n1CCn1cc(CO)nn1 [Compound 4q, 1-(2-(2-methyl-5-nitro-1H-imidazol-1-yl)ethyl)-4-(hydroxymethyl)-1H-1,2,3-triazole]",> 25000,16,16,,,,,
"Cc1ncc([N+](=O)[O-])n1CCn1cc(CCO)nn1 [Compound 4p, 1-(2-(2-methyl-5-nitro-1H-imidazol-1-yl)ethyl)-4-(2-hydroxyethyl)-1H-1,2,3-triazole]",> 25000,8,8,,,,,
"Cc1ncc([N+](=O)[O-])n1CCn1cc(-c2ccsc2)nn1 [Compound 4n, 1-(2-(2-methyl-5-nitro-1H-imidazol-1-yl)ethyl)-4-(thiophen-3-yl)-1H-1,2,3-triazole]",370,0.5,0.25 to 0.5,900,180,,,
"Cc1ncc([N+](=O)[O-])n1CCn1cc(CCC(=O)O)nn1 [Compound 4r, sodium 1-(2-(2-methyl-5-nitro-1H-imidazol-1-yl)ethyl)-4-(carboxyethyl)-1H-1,2,3-triazole]",> 25000,> 64,> 64,,,,,
"Cc1ncc([N+](=O)[O-])n1CCn1cc(-c2cncnc2)nn1 [Compound 4i, 1-(2-(2-methyl-5-nitro-1H-imidazol-1-yl)ethyl)-4-(5-pyrimidinyl)-1H-1,2,3-triazole]",3300,1,1,,,,,
